Results reported in PubChem BioAssay (NCI).
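Grown in 96-well plates, cells were treated for 48 hours with each compound at five concentrations. Insufficient inhibition: endpoint recorded as highest concentration tested. TGI: total growth inhibition.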

How the values were obtained:
Experiment in all cases: NCI tumour cell line growth inhibition, 48 h
HCT-116 colon = system: HCT-116 colon
COLO 205 colon = system: COLO 205 colon
SN12C renal = system: SN12C renal
PC-3 prostate = system: PC-3 prostate
SK-OV-3 ovarian = system: SK-OV-3 ovarian
SK-MEL-2 melanoma = system: SK-MEL-2 melanoma
M14 melanoma = system: M14 melanoma
SK-MEL-5 melanoma = system: SK-MEL-5 melanoma
DU-145 prostate = system: DU-145 prostate
MDA-MB-435 = system: MDA-MB-435
IGROV1 ovarian = system: IGROV1 ovarian
MOLT-4 leukemia = system: MOLT-4 leukemia
MCF7 breast = system: MCF7 breast
SK-MEL-28 melanoma = system: SK-MEL-28 melanoma
HS 578T breast = system: HS 578T breast
MDA-N = system: MDA-N
786-0 renal = system: 786-0 renal
EKVX NSCLC = system: EKVX NSCLC
HOP-92 NSCLC = system: HOP-92 NSCLC
HOP-62 NSCLC = system: HOP-62 NSCLC
OVCAR-8 ovarian = system: OVCAR-8 ovarian
K-562 leukemia = system: K-562 leukemia
CAKI-1 renal = system: CAKI-1 renal
NCI-H522 lung = system: NCI-H522 lung
UACC-257 melanoma = system: UACC-257 melanoma
A549 NSCLC = system: A549 NSCLC
TK-10 renal = system: TK-10 renal
SNB-19 CNS = system: SNB-19 CNS
SF-268 CNS = system: SF-268 CNS
OVCAR-3 ovarian = system: OVCAR-3 ovarian
HCT-15 colon = system: HCT-15 colon
UO-31 renal = system: UO-31 renal
OVCAR-4 ovarian = system: OVCAR-4 ovarian
A498 renal = system: A498 renal
SF-539 CNS = system: SF-539 CNS
RPMI-8226 leukemia = system: RPMI-8226 leukemia
UACC-62 melanoma = system: UACC-62 melanoma
SW-620 colon = system: SW-620 colon
ACHN renal = system: ACHN renal
MDA-MB-231 breast = system: MDA-MB-231 breast
OVCAR-5 ovarian = system: OVCAR-5 ovarian
NCI-H460 lung = system: NCI-H460 lung
SNB-75 CNS = system: SNB-75 CNS
RXF 393 renal = system: RXF 393 renal
U251 CNS = system: U251 CNS
HCC-2998 colon = system: HCC-2998 colon
HT29 colon = system: HT29 colon
T-47D breast = system: T-47D breast
SF-295 CNS = system: SF-295 CNS
NCI-H23 lung = system: NCI-H23 lung
BT-549 breast = system: BT-549 breast

Measured: TGI

C=CCCCC1(C)CCNC1=S (stereo unspecified)
> 100 µM: all assays above
